Data as given in publication PMC4375101 (Chemistry & biology, 2009).

Molecular target: yeast Hsc70 (Ssa1p) (Saccharomyces cerevisiae, UniProt P10591)
Test: single-turnover […]ATP ATPase assay with J-domain co-chaperone
Assay type: biochemical

Chain of yeast Hsc70 (Ssa1p) (P10591 2-642): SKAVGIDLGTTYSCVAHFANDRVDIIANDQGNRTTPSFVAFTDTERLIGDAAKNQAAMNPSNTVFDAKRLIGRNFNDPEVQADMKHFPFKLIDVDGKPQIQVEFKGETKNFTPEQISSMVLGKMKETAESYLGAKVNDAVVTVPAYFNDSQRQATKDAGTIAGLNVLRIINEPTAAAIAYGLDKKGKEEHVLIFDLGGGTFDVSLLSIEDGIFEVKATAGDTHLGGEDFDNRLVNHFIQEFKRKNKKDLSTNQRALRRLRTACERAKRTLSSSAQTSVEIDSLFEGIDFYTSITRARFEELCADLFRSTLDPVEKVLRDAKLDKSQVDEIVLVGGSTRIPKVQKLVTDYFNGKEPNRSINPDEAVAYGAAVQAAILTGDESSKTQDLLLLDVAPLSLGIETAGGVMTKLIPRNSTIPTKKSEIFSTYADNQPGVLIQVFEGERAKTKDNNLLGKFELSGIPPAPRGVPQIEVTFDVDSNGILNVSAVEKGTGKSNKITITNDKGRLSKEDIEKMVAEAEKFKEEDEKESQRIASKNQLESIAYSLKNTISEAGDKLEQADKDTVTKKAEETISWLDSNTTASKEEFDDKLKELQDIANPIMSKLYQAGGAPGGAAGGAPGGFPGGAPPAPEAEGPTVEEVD
Chain of yeast Hsc70 (Ssa1p) (P03070 whole entry, further chain): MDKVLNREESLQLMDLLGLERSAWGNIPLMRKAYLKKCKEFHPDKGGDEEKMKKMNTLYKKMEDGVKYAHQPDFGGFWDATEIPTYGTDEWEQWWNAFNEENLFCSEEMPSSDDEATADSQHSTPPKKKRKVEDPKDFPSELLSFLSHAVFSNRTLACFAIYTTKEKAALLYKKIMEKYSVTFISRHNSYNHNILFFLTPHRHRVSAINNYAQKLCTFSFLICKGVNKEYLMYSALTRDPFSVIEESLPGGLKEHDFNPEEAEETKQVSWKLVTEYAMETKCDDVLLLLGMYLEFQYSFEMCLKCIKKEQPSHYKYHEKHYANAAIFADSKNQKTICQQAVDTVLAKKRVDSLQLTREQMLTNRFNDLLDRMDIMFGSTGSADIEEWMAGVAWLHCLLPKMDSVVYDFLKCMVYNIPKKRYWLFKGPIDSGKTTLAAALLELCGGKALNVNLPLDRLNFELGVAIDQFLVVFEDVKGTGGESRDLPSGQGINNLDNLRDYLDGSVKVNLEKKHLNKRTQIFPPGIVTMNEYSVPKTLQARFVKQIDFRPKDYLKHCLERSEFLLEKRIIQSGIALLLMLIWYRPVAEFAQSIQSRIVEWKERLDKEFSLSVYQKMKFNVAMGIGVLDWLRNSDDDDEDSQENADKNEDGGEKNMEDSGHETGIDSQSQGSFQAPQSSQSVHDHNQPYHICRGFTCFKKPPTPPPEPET

SMILES: CCCCCCCCCCCCC/C=C/[C@@H](O)[C@H](COC1O[C@H](CO)[C@H](O)[C@H](OS(=O)(=O)O)[C@H]1O)NC(=O)CC12CC3CC(CC(C3)C1)C2 (stereo partly shown) [adaSGC]
- Ki: ~10 µM
